Measurements from patent US12396461B2, “Functional peptides having antimicrobial activity against phytopathogenic microorganisms” (TOYOTA JIDOSHA KABUSHIKI KAISHA, priority 2019, dated 2025).
Read-outs that look alike come from different tables or passages of the source.

Tests used:
Assay type in all cases: cell-based
Pyricularia oryzae = system: Pyricularia oryzae; set-up: key to Plate antimicrobial activity test Pyricularia oryzae, level: a case where hyphae extended to the entire well and no antimicrobial activity was found is defined as “level 0,”; a case where hyphae extended to less than a half of the well and thus the peptide inhibited the growth of the hyphae is defined as “level 1,”; a case where ungerminated spores were present and the peptide partially inhibited the germination is defined as “level 2,”; a case where all spores were ungerminated and the peptide completely inhibited the germination is defined as “level 3.”; conditions: 25° C. for 1 day or 2 days, microscopic observation
Fusarium oxysporum = system: Fusarium oxysporum; set-up: key to Plate antimicrobial activity test Fusarium oxysporum, level: a case where hyphae extended to the entire well and no antimicrobial activity was found is defined as “level 0,”; a case where hyphae extended to less than a half of the well and thus the peptide inhibited the growth of the hyphae is defined as “level 1,”; a case where ungerminated spores were present and the peptide partially inhibited the germination is defined as “level 2,”; a case where all spores were ungerminated and the peptide completely inhibited the germination is defined as “level 3.”
[1] = system: Colletotrichum destructivum; set-up: key to Plate antimicrobial activity test Colletotrichum destructivum, level: a case where hyphae extended to the entire well and no antimicrobial activity was found is defined as “level 0,”; a case where hyphae extended to less than a half of the well and thus the peptide inhibited the growth of the hyphae is defined as “level 1,”; a case where ungerminated spores were present and the peptide partially inhibited the germination is defined as “level 2,”; a case where all spores were ungerminated and the peptide completely inhibited the germination is defined as “level 3.”; conditions: 25° C. for 1 day or 2 days, microscopic observation
[2] = system: Colletotrichum orbiculare; set-up: key to Plate antimicrobial activity test Colletotrichum orbiculare, level: a case where hyphae extended to the entire well and no antimicrobial activity was found is defined as “level 0,”; a case where hyphae extended to less than a half of the well and thus the peptide inhibited the growth of the hyphae is defined as “level 1,”; a case where ungerminated spores were present and the peptide partially inhibited the germination is defined as “level 2,”; a case where all spores were ungerminated and the peptide completely inhibited the germination is defined as “level 3.”; conditions: 25° C. for 1 day or 2 days, microscopic observation
Botrytis cinerea = system: Botrytis cinerea; set-up: key to Plate antimicrobial activity test Botrytis cinerea, level: a case where hyphae extended to the entire well and no antimicrobial activity was found is defined as “level 0,”; a case where hyphae extended to less than a half of the well and thus the peptide inhibited the growth of the hyphae is defined as “level 1,”; a case where ungerminated spores were present and the peptide partially inhibited the germination is defined as “level 2,”; a case where all spores were ungerminated and the peptide completely inhibited the germination is defined as “level 3.”; conditions: 25° C. for 1 day or 2 days, microscopic observation

NKKVAKMM (listed as Solanum lycopersicum) [TsORF6-1-8aa-13, partial peptide of TsORF6-1, 8 amino acid residues]
0: Plate antimicrobial activity test Pyricularia oryzae, level (Pyricularia oryzae; peptide 1 μM) | Plate antimicrobial activity test Pyricularia oryzae, level (Pyricularia oryzae; peptide 10 μM) | Plate antimicrobial activity test Pyricularia oryzae, level (Pyricularia oryzae; peptide 100 μM) | Plate antimicrobial activity test Fusarium oxysporum, level (Fusarium oxysporum) | Plate antimicrobial activity test Colletotrichum destructivum, level ([1]; peptide 1 μM) | Plate antimicrobial activity test Colletotrichum destructivum, level ([1]; peptide 10 μM) | Plate antimicrobial activity test Colletotrichum destructivum, level ([1]; peptide 100 μM) | Plate antimicrobial activity test Colletotrichum orbiculare, level ([2]; peptide 1 μM) | Plate antimicrobial activity test Colletotrichum orbiculare, level ([2]; peptide 10 μM) | Plate antimicrobial activity test Colletotrichum orbiculare, level ([2]; peptide 100 μM) | Plate antimicrobial activity test Botrytis cinerea, level (Botrytis cinerea; peptide 1 μM) | Plate antimicrobial activity test Botrytis cinerea, level (Botrytis cinerea; peptide 10 μM) | Plate antimicrobial activity test Botrytis cinerea, level (Botrytis cinerea; peptide 100 μM)

TKVKN (listed as Solanum lycopersicum) [TsORF6-1-5aa-9, partial peptide of TsORF6-1, 5 amino acid residues]
0: Plate antimicrobial activity test Pyricularia oryzae, level (Pyricularia oryzae; peptide 1 μM) | Plate antimicrobial activity test Pyricularia oryzae, level (Pyricularia oryzae; peptide 10 μM) | Plate antimicrobial activity test Pyricularia oryzae, level (Pyricularia oryzae; peptide 100 μM) | Plate antimicrobial activity test Fusarium oxysporum, level (Fusarium oxysporum) | Plate antimicrobial activity test Colletotrichum destructivum, level ([1]; peptide 1 μM) | Plate antimicrobial activity test Colletotrichum destructivum, level ([1]; peptide 10 μM) | Plate antimicrobial activity test Colletotrichum destructivum, level ([1]; peptide 100 μM) | Plate antimicrobial activity test Colletotrichum orbiculare, level ([2]; peptide 1 μM) | Plate antimicrobial activity test Colletotrichum orbiculare, level ([2]; peptide 10 μM) | Plate antimicrobial activity test Colletotrichum orbiculare, level ([2]; peptide 100 μM) | Plate antimicrobial activity test Botrytis cinerea, level (Botrytis cinerea; peptide 1 μM) | Plate antimicrobial activity test Botrytis cinerea, level (Botrytis cinerea; peptide 10 μM) | Plate antimicrobial activity test Botrytis cinerea, level (Botrytis cinerea; peptide 100 μM)

TKVKNKKV (listed as Solanum lycopersicum) [TsORF6-1-8aa-9, partial peptide of TsORF6-1, 8 amino acid residues]
0: Plate antimicrobial activity test Pyricularia oryzae, level (Pyricularia oryzae; peptide 1 μM) | Plate antimicrobial activity test Pyricularia oryzae, level (Pyricularia oryzae; peptide 10 μM) | Plate antimicrobial activity test Pyricularia oryzae, level (Pyricularia oryzae; peptide 100 μM) | Plate antimicrobial activity test Fusarium oxysporum, level (Fusarium oxysporum) | Plate antimicrobial activity test Colletotrichum destructivum, level ([1]; peptide 1 μM) | Plate antimicrobial activity test Colletotrichum destructivum, level ([1]; peptide 10 μM) | Plate antimicrobial activity test Colletotrichum destructivum, level ([1]; peptide 100 μM) | Plate antimicrobial activity test Colletotrichum orbiculare, level ([2]; peptide 1 μM) | Plate antimicrobial activity test Colletotrichum orbiculare, level ([2]; peptide 10 μM) | Plate antimicrobial activity test Colletotrichum orbiculare, level ([2]; peptide 100 μM) | Plate antimicrobial activity test Botrytis cinerea, level (Botrytis cinerea; peptide 1 μM) | Plate antimicrobial activity test Botrytis cinerea, level (Botrytis cinerea; peptide 10 μM) | Plate antimicrobial activity test Botrytis cinerea, level (Botrytis cinerea; peptide 100 μM)

VKNKK (listed as Solanum lycopersicum) [TsORF6-1-5aa-11, partial peptide of TsORF6-1, 5 amino acid residues]
0: Plate antimicrobial activity test Pyricularia oryzae, level (Pyricularia oryzae; peptide 1 μM) | Plate antimicrobial activity test Pyricularia oryzae, level (Pyricularia oryzae; peptide 10 μM) | Plate antimicrobial activity test Pyricularia oryzae, level (Pyricularia oryzae; peptide 100 μM) | Plate antimicrobial activity test Fusarium oxysporum, level (Fusarium oxysporum) | Plate antimicrobial activity test Colletotrichum destructivum, level ([1]; peptide 1 μM) | Plate antimicrobial activity test Colletotrichum destructivum, level ([1]; peptide 10 μM) | Plate antimicrobial activity test Colletotrichum destructivum, level ([1]; peptide 100 μM) | Plate antimicrobial activity test Colletotrichum orbiculare, level ([2]; peptide 1 μM) | Plate antimicrobial activity test Colletotrichum orbiculare, level ([2]; peptide 10 μM) | Plate antimicrobial activity test Colletotrichum orbiculare, level ([2]; peptide 100 μM) | Plate antimicrobial activity test Botrytis cinerea, level (Botrytis cinerea; peptide 1 μM) | Plate antimicrobial activity test Botrytis cinerea, level (Botrytis cinerea; peptide 10 μM) | Plate antimicrobial activity test Botrytis cinerea, level (Botrytis cinerea; peptide 100 μM)

VKNKKVAK (listed as Solanum lycopersicum) [TsORF6-1-8aa-11, partial peptide of TsORF6-1, 8 amino acid residues]
0: Plate antimicrobial activity test Pyricularia oryzae, level (Pyricularia oryzae; peptide 1 μM) | Plate antimicrobial activity test Pyricularia oryzae, level (Pyricularia oryzae; peptide 10 μM) | Plate antimicrobial activity test Pyricularia oryzae, level (Pyricularia oryzae; peptide 100 μM) | Plate antimicrobial activity test Fusarium oxysporum, level (Fusarium oxysporum) | Plate antimicrobial activity test Colletotrichum destructivum, level ([1]; peptide 1 μM) | Plate antimicrobial activity test Colletotrichum destructivum, level ([1]; peptide 10 μM) | Plate antimicrobial activity test Colletotrichum destructivum, level ([1]; peptide 100 μM) | Plate antimicrobial activity test Colletotrichum orbiculare, level ([2]; peptide 1 μM) | Plate antimicrobial activity test Colletotrichum orbiculare, level ([2]; peptide 10 μM) | Plate antimicrobial activity test Colletotrichum orbiculare, level ([2]; peptide 100 μM) | Plate antimicrobial activity test Botrytis cinerea, level (Botrytis cinerea; peptide 1 μM) | Plate antimicrobial activity test Botrytis cinerea, level (Botrytis cinerea; peptide 10 μM) | Plate antimicrobial activity test Botrytis cinerea, level (Botrytis cinerea; peptide 100 μM)
